From a melting point compilation (Tetko et al.; mined from patent text by program, amines drawn as free bases though some values may be those of a salt) come the findings set out here.

Broadly, the melting point is the temperature of the solid-liquid transition. `O=C1COc2cc(Oc3ccc(O)cc3)ccc2N1`: the melting point is 250 to 251 °C.

Regarding `COc1cc2c(cc1OC)C(C(C#N)SCCOC(C)=O)=NCC2` (configuration not stated), the melting point is 157 °C.

On to `COCc1nc(C=NNC(=S)SC)c[nH]1`, for which the melting point lay within 150 to 154 °C.

Turning to `c1ccc(-c2nc(COc3ccc(CCCn4ccnc4)cc3)cs2)cc1`, the melting point was 110 to 111 °C.

As to `CCOC(=O)CC(=O)c1cc(F)c(S(=O)(=O)CC)nc1Nc1ccc(F)cc1F`, the melting point was in the range of 113 to 114 °C.

As to `COC(=O)c1ccnc(-c2cccc3cc(Cc4cc(F)cc(Cl)c4)sc23)c1`, the melting point lay in the range of 102 to 103 °C.

Consider `CC1(C)OC(=O)C(=Cc2ccc(I)s2)C1=O`, for which the melting point fell in the range of 182 to 184 °C.

Regarding `COC(=O)c1cc(-c2ccc(=O)n(C(C)C)n2)c(-c2ccccc2)nc1OCC(N)=O`, the melting point was 183 to 184 °C.

`Cn1nnc2cccc(C=O)c21` showed a melting point of 126 °C.

`Cc1nc(N)nc(N)c1-c1ccc([N+](=O)[O-])c(Cl)c1Cl` came in with a melting point of 265 °C.

For `OC1(c2ccc3c(c2)OCO3)CCN(CCc2ccccc2)CC1`, the melting point was 123 to 125 °C.

The compound `CCCc1cc2cc(O)c(Cl)c(Cl)c2s1` came in with a melting point of 50 to 51 °C.

Compound `CCOC(=O)Cn1c(=O)sc2cc(N)c(Cl)cc21` came in with a melting point of 154 to 160 °C.

`c1c[nH]c(C(c2ccc[nH]2)C23CC4CC(C2)CC(C(c2ccc[nH]2)c2ccc[nH]2)(C4)C3)c1` showed a melting point of 110 to 112 °C.

`Cc1cc(S(=O)(=O)NCC(O)(CO)c2ccccc2)ccc1Cl` (configuration not stated): the melting point fell in the range of 105 to 106 °C.

`Cc1nn(-c2c(Cl)cc(S(=O)(=O)C(F)(F)F)cc2Cl)nc1-c1nc(C#N)c(C#N)[nH]1` came in with a melting point of 244 to 245 °C.

For `Nc1ccc(-c2cc(OCCCCCC(=O)O)nc(-c3ccccc3)c2)cc1`, the melting point was 131 to 133 °C.

`CC(C)(C)OC(=O)n1nc(-c2cc3ccc(OCCCN4CCCC(O)C4)cc3n2C(=O)OC(C)(C)C)c2sc(-c3ccccc3)cc21` (configuration not stated) showed a melting point of 213 to 216 °C.

`CCCCc1ccnc(C2(C(=S)NC)CCCS2)c1` (configuration not stated) registered a melting point of 102 °C.

Turning to `CCc1cccc(CC(=O)O)c1OCCCc1cn(Cc2nc(-c3ccccc3)oc2C)nc1C(C)C`, the melting point was in the range of 94 to 95 °C.

`CC1=NCN(c2csc(Br)c2)O1` displayed a melting point of 72 to 73 °C.

As for `CCC(Cl)CCC(=O)c1cc(OC)c(OC)cc1F` (configuration not stated), the melting point lay in the range of 81 to 82 °C.

As for `COC(=O)c1cccc(Cc2ccc3[nH]c(-c4ccc5c(c4)OCO5)nc3c2)c1`, the melting point is 122 to 124 °C.

In turn, `CC(=O)NC1=NN(c2ccccc2)CC1` registered a melting point of 190 to 191 °C.

`COc1cccc([C@]23CCN(C)C(=O)[C@@H]2CCC2(C3)OCCO2)c1` (relative stereo) registered a melting point of 180 to 181 °C.

With `Nc1nc(Cl)cc(NCCCCO)n1`, the melting point lay in the range of 110 to 112 °C.

Compound `COCC1CN(c2ccc(OCC3CCCC3=O)cc2)C(=O)O1` (configuration not stated) showed a melting point of 70 °C.

The compound `CC(C)C(=O)N[C@H]1CC[C@H](CCN2CCN(c3nccc4c3OCC4)CC2)CC1` had a melting point of 204 °C.

`CCCCCCCCCCCCCCOC(=O)CCCCc1cc(OC(C)=O)c(OC(C)=O)c([N+](=O)[O-])c1` had a melting point of 46 to 47 °C.

In the case of `Cc1c(-c2cccnc2)n(CCCCCC(=O)O)c2ccccc12`, the melting point lay in the range of 111 to 113 °C.

In turn, `CC(C)C(=O)NC1c2cc3nonc3cc2OC(C)(C)C1O` (configuration not stated) yielded a melting point of 194 to 196 °C.

In the case of `CCOC(=O)CC(C#N)(CC(=O)OCC)c1ccc(F)cc1`, the melting point lay within 68 to 70 °C.

For the compound `CN(C)CCCNC(=O)c1ccccc1-c1cc2cc(Cl)c(Cl)cc2[nH]1`, the melting point is 169 °C.

Take `O=C(c1cc(O)c(O)c(O)c1)c1csc(-c2ccccc2)n1`: the melting point fell in the range of 175 to 176 °C.

Compound `O=S1(=O)NCN(C2CC2)c2cc(Br)c(C(F)(F)F)cc21` registered a melting point of 186 to 189 °C.

As for `COc1cc(F)c(C(=O)CCl)c(OC)c1`, the melting point lay in the range of 93 to 96 °C.

`N#CC(=CNc1ccccc1)Cc1cnc2ccccc2c1` came in with a melting point of 202 to 203 °C.

In the case of `COC1=C(OC)C(=O)c2c(C#N)cccc2C1=O`, the melting point fell in the range of 171 to 172 °C.

The compound `CCN(CC)NC(C)=O` came in with a melting point of 47.5 to 49.5 °C.

As for `CCC(COC)n1nnc2c(Nc3ccc(C(C)=O)cc3Br)nc(C)nc21` (configuration not stated), the melting point lay within 133 to 134 °C.

Compound `CCOC(=NC(=O)c1ccc(C(F)(F)F)cc1)N1Cc2ccccc2-c2ccccc2C1` gave a melting point of 112 to 113 °C.

Consider `Nc1c(Br)cc(F)cc1[N+](=O)[O-]`, for which the melting point was 71.5 to 72.5 °C.

Regarding `Cc1ccc2c(c1)C=Cc1sc(C)nc1C2c1cn(C)c(=O)[nH]c1=S` (configuration not stated), the melting point fell in the range of 235 to 237 °C.

Compound `O=CNc1csc(Br)n1` registered a melting point of 167 °C.

The compound `Cc1nc(-c2sc(-c3ccc(Cl)cc3)nc2C)sc1C(=O)N[C@H](C)[C@](O)(Cn1cncn1)c1ccc(F)cc1F` came in with a melting point of 110 to 114 °C.

In turn, `COc1cc(C=O)ccc1OCc1csc(N2CCCCC2)n1` gave a melting point of 129 to 130 °C.

In the case of `Cc1cnc2c(Cl)nc3cc4ccccc4cc3n12`, the melting point lay in the range of 221 to 223 °C.

Consider `CCOC(=O)C(=O)c1c[nH]c2ccc(CNS(C)(=O)=O)cc12`, for which the melting point was 218 to 220 °C.

`COc1ccc(Sc2c(O)c3c(Cl)cc(Cl)cc3[nH]c2=O)cc1`: the melting point lay within 280 to 282 °C.

As for `COc1ccc(Cn2c(N)cc(=O)[nH]c2=S)cc1OCc1ccccc1`, the melting point was in the range of 239 to 240 °C.

Compound `CN(Cc1cc2c(=O)c(C(=O)NCc3ccc(Cl)cc3)cn(C)c2o1)CC(O)c1cccs1` (configuration not stated) displayed a melting point of 145 to 147 °C.

In turn, `CCc1noc(NS(=O)(=O)c2ccccc2)c1C` yielded a melting point of 94 to 95 °C.

In turn, `N#Cc1ccc(-c2ccc(-c3ccc(C#N)o3)cc2)cc1` came in with a melting point of 216 to 218 °C.

As to `CCOC(=O)CC1(CC)OCCc2c1[nH]c1c(C)cccc21` (configuration not stated), the melting point fell in the range of 77 to 78 °C.

The compound `Cc1nc2c(N)nc3ccccc3c2n1CCCCS(C)=O` (configuration not stated) had a melting point of 184 to 187 °C.

With `Cc1cc2cc(C(=O)O)ccc2s1`, the melting point was in the range of 220 to 222 °C.

The compound `N#CC1CCc2cc(C(=O)O)ccc2C1` (configuration not stated) registered a melting point of 231 to 236 °C.

For `CCOC(=O)CCC1CCN(c2ccc(C#N)c3ccccc23)CC1`, the melting point was in the range of 106 to 107 °C.

As for `Nc1ccc(F)c(-c2cccnc2)c1F`, the melting point fell in the range of 112 to 113 °C.

`Cc1cc(C=O)c(OCCCCCCBr)c(C=O)c1`: the melting point was 46 °C.

Regarding `COc1ccc([N+](=O)[O-])c(C(C)=O)c1OC`, the melting point was in the range of 64 to 66 °C.

Regarding `CC(C)CCSc1cc(C(=O)O)cc(S(N)(=O)=O)c1-c1ccccc1`, the melting point lay within 70 to 74 °C.

In turn, `Cc1cc(Cl)ccc1OCc1nn(C)c(=O)o1` gave a melting point of 108 to 110 °C.

For `COc1ccc2c(c1)C(n1cc[nH]c1=S)CCC2` (configuration not stated), the melting point was in the range of 142 to 143 °C.

For the compound `O=Cc1ccc(Cl)c(OCCCC(=O)N(CCO)CCCCC2CCCC2)c1[N+](=O)[O-]`, the melting point lay in the range of 107 to 108 °C.

As to `Fc1ccc(-n2ccc3cc(-c4ccccn4)ccc32)cc1`, the melting point fell in the range of 119 to 121 °C.

`COc1ccc(C2=NN(c3ccc(CC(=O)N4CCOCC4)cc3)C(=O)C(C)(C)C2)cc1OC` came in with a melting point of 165 to 167 °C.

`CCC(C)(O/N=C(\C(=O)O)c1csc(NC(c2ccccc2)(c2ccccc2)c2ccccc2)n1)C(=O)OC(C)(C)C` (configuration not stated) returned a melting point of 163 to 164 °C.

The compound `CC(C)(C)OC(=O)CCCCCOc1ccc2sc(-c3ccccn3)nc(=O)c2c1` yielded a melting point of 101 to 102 °C.

Regarding `CN1C(=O)C(C)(C)N=C(c2ccccc2F)c2cc(NC(=O)OCc3ccccc3)cc(Cl)c21`, the melting point lay within 125 to 127 °C.

For the compound `CCC(O)c1c(C)c(NC(=O)CC(C)(C)C)c(C)c2c1OCC2c1ccc(C(C)C)cc1` (configuration not stated), the melting point was 165 to 167 °C.

Take `C=CCOc1ccc(C(=O)C=Cc2cccnc2)c(O)c1`: the melting point is 115 to 117 °C.

Regarding `O=C(Cc1ccncc1)NC(Cc1c[nH]c2ccccc12)C(O)CCc1cc(C(F)(F)F)cc(C(F)(F)F)c1` (configuration not stated), the melting point was in the range of 213 to 214 °C.

Consider `CCCCCCCCCCc1ccc2ccc(OC)cc2c1`, for which the melting point lay within 29.9 to 30.8 °C.

As to `CCOC(=O)C1=C(COC2CCNCC2)NC(C)=C(C(=O)OC)C1c1ccccc1Cl` (configuration not stated), the melting point is 175 to 176 °C.

Compound `CCCCc1ncc(/C=C2\C(=O)NC(=O)N2Cc2cccs2)n1Cc1ccc(C(=O)O)cc1` showed a melting point of 297 to 299 °C.

For `OCc1cc(Br)cnc1Cl`, the melting point lay in the range of 86.7 to 87.5 °C.

The compound `COc1ccc(-n2c(-c3sc(Nc4ccccc4)nc3C)nc3ccccc3c2=O)cc1` gave a melting point of 265 to 266 °C.

In turn, `CN(C)CCOc1ccc(/C(=C(\c2ccccc2)C(F)(F)F)c2ccccc2)cc1` registered a melting point of 90 to 91 °C.

`COc1ccc(-c2nc(Cn3cncn3)nc3cc(OC)c(OC)cc23)cc1`: the melting point is 206 to 207 °C.

Compound `CCCCOc1c(NC(C)C(C)(C)C)c(=O)c1=O` (configuration not stated) had a melting point of 90 to 99 °C.

With `COc1ccc(S(=O)(=O)NCCCCCCCC(=O)O)cc1`, the melting point lay within 102 to 103 °C.

With `Cc1nn(Cc2ccccc2)cc1C(=O)Nc1ccc(N2CCC(N3CCOCC3)CC2)c(C#N)c1`, the melting point came to 193 °C.

`CCOC(=O)C(Br)=CC1C(C(=O)OC(C#N)c2cccc(Oc3ccccc3)c2)C1(C)C` (configuration not stated): the melting point was 69 °C.

With `CCCCOc1nc(N)c2[nH]c(=O)n(CCS(=O)(=O)c3cccc(CC(=O)OC)c3)c2n1`, the melting point was 246 to 247 °C.

With `CCOC(=O)c1nc2ccc(OC)cc2[nH]c1=O`, the melting point came out at 229 °C.

Consider `N#Cc1ccc(C(=O)c2cc(C(F)(F)F)ccc2S)cc1`, for which the melting point was 210 °C.

Consider `COc1ccc(C2(C#N)CCC(=O)CC2)c2nc(C(C)C)oc12`, for which the melting point amounted to 118 °C.

In the case of `CNC(=O)CS(=O)(=O)Nc1c(F)cccc1Oc1nc(OC)cc(OC)n1`, the melting point was 193 to 198 °C.

`Cc1c(C)c2c(c(C)c1N)C(c1ccc(C(C)C)cc1)CO2` (configuration not stated) gave a melting point of 171 to 173 °C.

With `N#Cc1ccc(-c2cc3c(Cl)ncnc3[nH]2)cc1`, the melting point lay in the range of 296 to 297 °C.

In the case of `NC=C1C(=O)c2ccccc2OC1c1ccccc1` (configuration not stated), the melting point is 149 to 152 °C.
